From patent US4372953A, “Tetrazole derivatives, and anti-ulcer composition containing the same” (Otsuka Pharmaceutical Company, Limited, priority 1980, dated 1983)
Like-named read-outs stand apart in the source and are kept apart here.

How the values were obtained:
gastric juice secretion = assay: Shay rat pylorus ligation method (gastric juice secretion-inhibiting activity); assay type: in vivo, male Wistar rats; details: 100 mg/kg, 4 hours after ligation; for inhibition in vivo at 100 mg/kg: Rattus norvegicus, 4 h
Method: The pharmacological activities of the compounds (1) were tested by a Shay rat pylorus ligation method (cf. H. Shay et al: Gastroenterol., Vol. 5, page 43, 1945) which is the most popular method for testing of gastric juice secretion-inhibiting activity. The test was carried out by using male Wistar rats, weighing about 170 g and fasting for 24 hours.
Test compounds were administered 30 minutes before the pylorus ligation in a dose of 100 mg/kg in subcutaneous route in case of test compounds 37, 38, 50, 51 and 52, in a dose of 200 mg/kg in subcutaneous route in case of test compounds 105 and 106 and in dose of 100 mg/kg in duodenal route in case of other test compounds, and the volume, total acidity and pepsin activity of the gastric juice were measured 4 hours after the ligation. As a control, a saline solution was administered instead of the test compound. The inhibitory ratio (%) of the test compounds were calculated when the inhibitory activities of the control were counted as zero (0).
(§1) In the table, the inhibitory ratio (%) was evaluated as follows: […]

stress ulcer = assay: Stress ulcer (restraint and water immersion); assay type: in vivo, male Wistar rats; details: Rattus norvegicus, po, 7 h, read-out: Inhibitory ratio of stress ulcer; for inhibition in vivo: concentration of 1×10^-3 mole
Method: After male Wistar rats weighing about 170 g was fasted for 24 hours, the rats were restrained in a stress cage and dipped in water bath at 23° C. till chest of the animals. After 7 hours, the rats were killed and the stomach was isolated. Into the isolated stomach 10% formalin (8 ml) was poured and settled. The stomach was cut open at the greater curvature, and the length of each ulcer on the membrane was measured. Sum of the length of all ulcers was shown as ulcer index (UI). The test compound was orally administered to the rats before restraint in a stress cage in a dose of 300 mg/kg in the form of 0.5% CMC suspension in case of test compounds 3, 4, 6, 15 and 27 and in a concentration of 1×10^-3 mole in case of other test compounds. As a control, only the solvent (CMC solution) was administered likewise. The inhibitory ratio (%) of stress ulcer of the test compounds was calculated by the following equation: [formula]
as §1

[1] = duodenal route, read-out: Inhibitory ratio, volume of gastric juice
[2] = sc, subcutaneous route, read-out: Inhibitory ratio, pepsin activity
[3] = sc, subcutaneous route, read-out: Inhibitory ratio, total acidity
[4] = sc, subcutaneous route, read-out: Inhibitory ratio, volume of gastric juice

| Structure (SMILES) | inhibition in vivo at 100 mg/kg (gastric juice secretion; [1]) [%] | inhibition in vivo (stress ulcer) [%] | also measured |
| --- | --- | --- | --- |
| Cn1nnnc1SCCCSCc1ccco1 [Test compound 21, 1-Methyl-5-[3-(2-furyl)methylthiopropyl]thio-1,2,3,4-tetrazole] | > 50 |  |  |
| CC(=O)N(C)CCCSc1nnnn1C [Test compound 83, 1-Methyl-5-[3-(N-methyl-N-acetylamino)propyl]thio-1,2,3,4-tetrazole] |  | > 60 |  |
| Cn1nnnc1SCCCS(=O)(=O)c1ccccn1 [Test compound 48, 3-(1-Methyl-1,2,3,4-tetrazol-5-yl)thiopropyl 2-pyridyl sulfone] | 10 to 50 |  |  |
| Cn1nnnc1SCCCSCc1ccccc1 [Test compound 22, 1-Methyl-5-(3-benzylthiopropyl)thio-1,2,3,4-tetrazole] | > 50 |  |  |
| Cn1nnnc1SCCCSCc1ccccn1 [Test compound 23, 1-Methyl-5-[3-(2-pyridyl)methylthiopropyl]thio-1,2,3,4-tetrazole] | 10 to 50 |  |  |
| Cn1nnnc1SCCCSc1ccncc1 [Test compound 25, 1-Methyl-5-[3-(4-pyridyl)thiopropyl]thio-1,2,3,4-tetrazole] |  | > 60 |  |
| Cn1nnnc1SCCCCSc1ccccc1 [Test compound 28, 1-Methyl-5-(4-phenylthiobutyl)thio-1,2,3,4-tetrazole] | 10 to 50 |  |  |
| Cn1nnnc1[S+]([O-])CCCCSc1ccccn1 (stereo not drawn) [Test compound 45, 1-Methyl-1,2,3,4-tetrazol-5-yl 4-(2-pyridyl)thiobutyl sulfoxide] |  | > 60 |  |
| Cn1nnnc1SCCCSc1ccccc1 [Test compound 10, 1-Methyl-5-(3-phenylthiopropyl)thio-1,2,3,4-tetrazole] | 10 to 50 |  |  |
| Cn1nnnc1SCCCCC(=O)c1ccccc1 [Test compound 71, 1-Methyl-5-(4-benzoylbutyl)thio-1,2,3,4-tetrazole] | 10 to 50 |  |  |
| Cn1nnnc1SCCSc1ccccn1 [Test compound 31, 1-Methyl-5-[2-(2-pyridyl)thioethyl]thio-1,2,3,4-tetrazole] | > 50 | > 60 |  |
| CCCCOc1ccc(C(=O)CCCSc2nnnn2C)cc1 [Test compound 79, 1-Methyl-5-[3-(4-butoxybenzoyl)propyl]thio-1,2,3,4-tetrazole] |  | > 60 |  |
| Cn1ccnc1SCCCSc1nnnn1C [Test compound 11, 1-Methyl-5-[3-(1-methylimidazol-2-yl)thiopropyl]thio-1,2,3,4-tetrazole] | > 50 |  |  |
| Cn1nnnc1SCCCSc1nc2ccccc2[nH]1 [Test compound 19, 1-Methyl-5-[3-(2-benzimidazolyl)thiopropyl]thio-1,2,3,4-tetrazole] | 10 to 50 |  |  |
| CCC(=O)CCCSc1nnnn1C [Test compound 50, 1-Methyl-5-(3-propionylpropyl)thio-1,2,3,4-tetrazole] |  |  | inhibition in vivo at 100 mg/kg (gastric juice secretion; [2]): > 50%; inhibition in vivo at 100 mg/kg (gastric juice secretion; [3]): > 50%; inhibition in vivo at 100 mg/kg (gastric juice secretion; [4]): > 50% |
| Cn1nnnc1SCCCSc1ccccn1 [compound 2] |  | > 60 | inhibition in vivo at 100 mg/kg (gastric juice secretion; duodenal route, star-marked compounds, read-out: Inhibitory ratio, pepsin activity): 30 to 60%; inhibition in vivo at 100 mg/kg (gastric juice secretion; duodenal route, star-marked compounds, read-out: Inhibitory ratio, total acidity): > 60%; inhibition in vivo at 100 mg/kg (gastric juice secretion; duodenal route, star-marked compounds, read-out: Inhibitory ratio, volume of gastric juice): > 60% |
| Cc1ncsc1C(=O)CCCSc1nnnn1C [Test compound 80, 1-Methyl-5-[3-(4-methyl-5-thiazolyl)carbonylpropyl]thio-1,2,3,4-tetrazole] | > 50 | > 60 |  |
| Cn1nnnc1SCCCCSc1nc2ccccc2c(=O)[nH]1 [Test compound 29, 1-Methyl-5-[4-(4-oxo-3,4-dihydroquinazolin-2-yl)thiobutyl]thio-1,2,3,4-tetrazole] | 10 to 50 |  |  |
| Cn1nnnc1SCCCC[S+]([O-])c1nnnn1C (stereo not drawn) [Test compound 46, 4-(1-Methyl-1,2,3,4-tetrazol-5-yl)thiobutyl 1-methyl-1,2,3,4-tetrazol-5-yl sulfoxide] | 10 to 50 | > 60 |  |

| Structure (SMILES) | inhibition in vivo at 100 mg/kg (gastric juice secretion; [1]) [%] | inhibition in vivo (stress ulcer) [%] | also measured |
| --- | --- | --- | --- |
| Cn1nnnc1SCCCSc1ccc([N+](=O)[O-])cn1 [Test compound 40, 1-Methyl-5-[3-(5-nitro-2-pyridyl)thiopropyl]thio-1,2,3,4-tetrazole] |  | > 60 |  |
| c1ccc(-n2nnnc2SCCCSc2nnnn2-c2ccccc2)cc1 [Test compound 38, 1-Phenyl-5-[3-(1-phenyl-1,2,3,4-tetrazol-5-yl)thiopropyl]thio-1,2,3,4-tetrazole] |  |  | inhibition in vivo at 100 mg/kg (gastric juice secretion; [2]): 10 to 50%; inhibition in vivo at 100 mg/kg (gastric juice secretion; [3]): 10 to 50%; inhibition in vivo at 100 mg/kg (gastric juice secretion; [4]): 10 to 50% |
| CC(CC[S+]([O-])c1nnnn1C)Sc1nnnn1C (stereo not drawn) [Test compound 49, 1-Methyl-1,2,3,4-tetrazol-5-yl 3-methyl-3-(1-methyl-1,2,3,4-tetrazol-5-yl)thiopropyl sulfoxide] |  | > 60 |  |
| Cn1nnnc1SCCCCCSc1ccccn1 [Test compound 32, 1-Methyl-5-[5-(2-pyridyl)thiopentyl]thio-1,2,3,4-tetrazole] | 10 to 50 |  |  |
| COc1ccc(CCNC(=O)CCCn2nnnc2C)cc1OC [Test compound 114, N-[2-(3,4-Dimethoxyphenyl)ethyl]-4-(5-methyl-1,2,3,4-tetrazol-1-yl)butyramide] |  | 30 to 60 |  |
| CCN(CCCSc1nnnn1C)C(=O)C1CCCC1 [Test compound 92, 1-Methyl-5-[3-(N-ethyl-N-cyclopentylcarbonylamino)propyl]thio-1,2,3,4-tetrazole] | 10 to 50 |  |  |
| Cc1nnnn1CCCC(=O)N1CCOCC1 [Test compound 117, 5-Methyl-1-(3-morpholinocarbonylpropyl)-1,2,3,4-tetrazole] |  | 30 to 60 |  |
| Cn1nnnc1SCc1ccccn1 [Test compound 98, 1-Methyl-5-(2-pyridylmethyl)thio-1,2,3,4-tetrazole] | > 50 |  |  |
| Cn1nnnc1SCCCSc1nnnn1C [Test compound 37, 1-Methyl-5-[3-(1-methyl-1,2,3,4-tetrazol-5-yl)thiopropyl]thio-1,2,3,4-tetrazole] |  |  | inhibition in vivo at 100 mg/kg (gastric juice secretion; [2]): > 50%; inhibition in vivo at 100 mg/kg (gastric juice secretion; [3]): > 50%; inhibition in vivo at 100 mg/kg (gastric juice secretion; [4]): > 50% |
| COc1ccc(C(=O)CCCSc2nnnn2C)cc1 [Test compound 63, 1-Methyl-5-[3-(4-methoxybenzoyl)propyl]thio-1,2,3,4-tetrazole] | 10 to 50 |  |  |
| Cn1nnnc1SCCCNC(=O)C1CCCCC1 [Test compound 81, 1-Methyl-5-(3-cyclohexylcarbonylaminopropyl)thio-1,2,3,4-tetrazole] | 10 to 50 |  | inhibition in vivo at 100 mg/kg (gastric juice secretion; duodenal route, read-out: Inhibitory ratio, pepsin activity): 10 to 50%; inhibition in vivo at 100 mg/kg (gastric juice secretion; duodenal route, read-out: Inhibitory ratio, total acidity): 10 to 50% |
| Cn1nnnc1SCCCCS(=O)(=O)c1nnnn1C [Test compound 47, 4-(1-Methyl-1,2,3,4-tetrazol-5-yl)thiobutyl 1-methyl-1,2,3,4-tetrazol-5-yl sulfone] | > 50 |  |  |
| Cn1nnnc1SCCCSc1ccc2ccccc2n1 [Test compound 18, 1-Methyl-5-[3-(2-quinolyl)thiopropyl]thio-1,2,3,4-tetrazole] | 10 to 50 |  |  |
| Cn1nnnc1SCCSc1nnnn1C [Test compound 35, 1-Methyl-5-[2-(1-methyl-1,2,3,4-tetrazol-5-yl)thioethyl]thio-1,2,3,4-tetrazole] |  |  | Inhibitory ratio, volume of gastric juice (gastric juice secretion; duodenal route): + + |
| Cc1ccnc(SCCCSc2nnnn2C)n1 [Test compound 13, 1-Methyl-5-[3-(4-methyl-2-pyrimidyl)thiopropyl]thio-1,2,3,4-tetrazole] | > 50 |  |  |
| Cc1nnc(SC(C)CCSc2nnnn2C)o1 (stereo not drawn) [Test compound 42, 1-Methyl-5-[3-methyl-3-(5-methyl-1,3,4-oxadiazol-2-yl)thiopropyl]thio-1,2,3,4-tetrazole] |  | > 60 |  |
| Cc1nnnn1CCCC(=O)N1CCN(C)CC1 [Test compound 112, 5-Methyl-1-[3-(4-methyl-1-piperazinylcarbonyl)propyl]-1,2,3,4-tetrazole] |  | > 60 |  |
| Cc1nnc(SCCCSc2nnnn2C)n1C [Test compound 15, 1-Methyl-5-[3-(4,5-dimethyl-1,2,4-triazol-3-yl)thiopropyl]thio-1,2,3,4-tetrazole] |  |  | inhibition in vivo at 300 mg/kg (stress ulcer; 300 mg/kg, 0.5% CMC suspension): > 60% |
